Assay results as given in patent publication US7649017B2, “Compositions intended for the treatment of peripheral neuropathies, preparation thereof and uses of same” (Universite de la Mediterranee, priority 2002, dated 2010).

Columns and labels:
[1] = tested on: transgenic C22 animals (murine CMT model, human YAC containing the PMP22 gene); experiment: Rotor-Rod test, first open trial in transgenic C22 animals; type: in vivo, mice; conditions: treated with vitamin C
Procedure: To better understand the pathophysiology of this disease and to propose therapeutic solutions, a murine disease model was constructed in 1996 by transgenesis of a human YAC containing the PMP22 gene (Huxley et al., Human Molecular Genetics, 1996, Vol. 5, No. 5, 563-569). […] The action of vitamin C was tested in this model. A first “open” trial was carried out, without inclusion criteria, by simply separating males and females so as to rapidly determine whether a phenotypic correction effect could be seen. The Rotor-Rod test, classically used in pharmacology, was chosen as the criterion of muscle strength. […] The results, expressed in seconds, confirm that males were more severely affected (males in this line even have early mortality, since all males die before 10 months of age).

[2] = tested on: C22 males (murine CMT model); experiment: Rotor-Rod test, double-blind study vitamin C versus placebo in C22 males; type: in vivo, mice; conditions: 1.12 mg once a week by gavage
Procedure: Rotor-Rod test performance was evaluated every month (at 3 months, 4 months and 5 months). The standard deviation is indicated by the darkened section at the top of each column. […] Only males (from two litters) were used, since the degree of severity is sex-specific. […] The fact that only males were included is very important, because it is known that severity varies widely in human patients according to sex, a variability also seen in the animal models used, in which there appears to be a major modifier gene having an impact on myelination. “Genetic background” thus seems to play a significant role in the severity of the phenotype. It was therefore justified to work with individuals from a same litter. […] The animals were then evaluated in the Rotor-Rod test. The study lasted for three months (age of animals: two to five months). The results are illustrated in FIG. 1.

[3] = tested on: C22 animals (murine CMT model); experiment: Bar crossing (posture) test and grip test, third study; type: in vivo, mice
Procedure: FIG. 2: A second series of preclinical tests with the same design as the first series (described in FIG. 1) was carried out. Animals were tested after one month and two months of treatment using the bar crossing test (the longer the animal takes to cross the bar or the more it slips off, the worse the locomotor performance). Animals were also tested in the grip test which measures the traction strength that must be applied for the animal to release the bar (the higher this value the better the performance). To confirm these findings and further investigate the mechanism of phenotypic correction, a third study was carried out. Two tests were used: a posture test (crossing a bar that gets progressively narrower) and a test of muscle strength, the “grip test”. FIG. 2 illustrates the results after two months of treatment. […] This test is a good indicator of muscle strength.

C22 mice = experiment: Histologic analysis of sciatic nerve, percentage of myelinated fibers; type: in vivo; conditions: C22 mice treated for three months
Procedure: The sciatic nerve was harvested and the percentage of myelinated fibers was determined by histologic analysis and is given in the figure on the ordinate, together with the results of a non-transgenic control (more than 95% of peripheral nerve fibers are myelinated in adults).
To obtain data on the mechanism of this phenotypic correction, the histologic features of the nerves of treated animals were studied. For this, some of the treated animals were sacrificed and a histologic analysis was performed. The percentage of myelinated nerve fibers increased with treatment (FIG. 3). This percentage was 95% for non-transgenic animals, 20-30% for untreated C22 mice and 70% for treated animals. The treatment therefore reactivated myelination, which was inhibited by overexpression of PMP22.

[4] = tested on: C22 males (murine CMT model); experiment: Survival of treated C22 males under continued treatment; type: in vivo, mice; conditions: continued vitamin C treatment; untreated males die before 10 months of age
Excerpt: The results, expressed in seconds, confirm that males were more severely affected (males in this line even have early mortality, since all males die before 10 months of age).
Performance continued to improve, even after taking into account that the animals had aged.

O=C1O[C@H]([C@@H](O)CO)C(O)=C1O [vitamin C, ascorbic acid]
Seconds on the bar (Rotor-Rod test), treated animals ([1]; C22 females): 45.7 ± 10 s
Seconds on the bar (Rotor-Rod test), treated animals ([1]; C22 males): 46 ± 14 s
Rotor-Rod test performance, first month of treatment ([2]; first month): not very effective
Time on the bar (Rotor-Rod test), second month of treatment ([2]; from the second month): ~50 s
Rotor-Rod test performance, third month of treatment ([2]; third month): further improved
Bar crossing performance ([3]; after one and two months of treatment): deteriorated at the first month, then improved during the second
Grip test (muscle strength) ([3]; after two months of treatment): improvement was also seen starting from two months of treatment
Percentage of myelinated nerve fibers (C22 mice): 70%
Age at which treated males were still alive [4]: still alive at age 24 months
